Data taken from PubChem BioAssay (NCI).
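GI50 is the concentration that inhibits growth by half. TGI: concentration producing complete growth inhibition.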

Legend:
Assay in all cases: NCI-60 cell line screen, 384-well format
786-0 renal = tested on: 786-0 renal
A498 renal = tested on: A498 renal
A549 NSCLC = tested on: A549 NSCLC
ACHN renal = tested on: ACHN renal
CAKI-1 renal = tested on: CAKI-1 renal
CCRF-CEM leukemia = tested on: CCRF-CEM leukemia
COLO 205 colon = tested on: COLO 205 colon
DU-145 prostate = tested on: DU-145 prostate
EKVX NSCLC = tested on: EKVX NSCLC
HCC-2998 colon = tested on: HCC-2998 colon
HCT-116 colon = tested on: HCT-116 colon
HCT-15 colon = tested on: HCT-15 colon
HL-60(TB) leukemia = tested on: HL-60(TB) leukemia
HOP-62 NSCLC = tested on: HOP-62 NSCLC
HOP-92 NSCLC = tested on: HOP-92 NSCLC
HS 578T breast = tested on: HS 578T breast
HT29 colon = tested on: HT29 colon
IGROV1 ovarian = tested on: IGROV1 ovarian
K-562 leukemia = tested on: K-562 leukemia
KM12 colon = tested on: KM12 colon
LOX IMVI melanoma = tested on: LOX IMVI melanoma
M14 melanoma = tested on: M14 melanoma
MALME-3M melanoma = tested on: MALME-3M melanoma
MCF7 breast = tested on: MCF7 breast
MDA-MB-231 breast = tested on: MDA-MB-231 breast
MDA-MB-435 melanoma = tested on: MDA-MB-435 melanoma
MDA-MB-468 breast = tested on: MDA-MB-468 breast
MOLT-4 leukemia = tested on: MOLT-4 leukemia
NCI-H226 lung = tested on: NCI-H226 lung
NCI-H23 lung = tested on: NCI-H23 lung
NCI-H322M lung = tested on: NCI-H322M lung
NCI-H460 NSCLC = tested on: NCI-H460 NSCLC
NCI-H522 lung = tested on: NCI-H522 lung
NCI/ADR-RES ovarian = tested on: NCI/ADR-RES ovarian
OVCAR-3 ovarian = tested on: OVCAR-3 ovarian
OVCAR-4 ovarian = tested on: OVCAR-4 ovarian
OVCAR-5 ovarian = tested on: OVCAR-5 ovarian
OVCAR-8 ovarian = tested on: OVCAR-8 ovarian
PC-3 prostate = tested on: PC-3 prostate
RPMI-8226 leukemia = tested on: RPMI-8226 leukemia
RXF 393 renal = tested on: RXF 393 renal
SF-268 CNS = tested on: SF-268 CNS
SF-295 CNS = tested on: SF-295 CNS
SF-539 CNS = tested on: SF-539 CNS
SK-MEL-2 melanoma = tested on: SK-MEL-2 melanoma
SK-MEL-28 melanoma = tested on: SK-MEL-28 melanoma
SK-MEL-5 melanoma = tested on: SK-MEL-5 melanoma
SK-OV-3 ovarian = tested on: SK-OV-3 ovarian
SN12C renal = tested on: SN12C renal
SNB-19 CNS = tested on: SNB-19 CNS
SNB-75 CNS = tested on: SNB-75 CNS
SR leukemia = tested on: SR leukemia
SW-620 colon = tested on: SW-620 colon
T-47D breast = tested on: T-47D breast
TK-10 renal = tested on: TK-10 renal
U251 glioblastoma = tested on: U251 glioblastoma
UACC-62 melanoma = tested on: UACC-62 melanoma
UO-31 renal = tested on: UO-31 renal

Cc1ccc(C(=O)N(CCCN)[C@@H](c2nc3cc(Cl)ccc3c(=O)n2Cc2ccccc2)C(C)C)cc1
GI50 ([…]-0 renal): < 10 nM
TGI (786-0 renal): 1420 nM
GI50 (A498 renal): < 10 nM
TGI (A498 renal): 1810 nM
GI50 (A549 NSCLC): < 10 nM
TGI (A549 NSCLC): 1800 nM
GI50 (ACHN renal): 1140 nM
TGI (ACHN renal): 2370 nM
GI50 (CAKI-1 renal): < 10 nM
TGI (CAKI-1 renal): 1920 nM
GI50 (CCRF-CEM leukemia): < 10 nM
TGI (CCRF-CEM leukemia): < 10 nM
GI50 (COLO 205 colon): < 10 nM
TGI (COLO 205 colon): < 10 nM
GI50 (DU-145 prostate): < 10 nM
TGI (DU-145 prostate): < 10 nM
GI50 (EKVX NSCLC): < 10 nM
TGI (EKVX NSCLC): 1220 nM
GI50 (HCC-2998 colon): < 10 nM
TGI (HCC-2998 colon): 112 nM
GI50 (HCT-116 colon): < 10 nM
TGI (HCT-116 colon): 1200 nM
GI50 (HCT-15 colon): < 10 nM
TGI (HCT-15 colon): 1280 nM
GI50 (HL-60(TB) leukemia): < 10 nM
TGI (HL-60(TB) leukemia): < 10 nM
GI50 (HOP-62 NSCLC): < 10 nM
TGI (HOP-62 NSCLC): 1950 nM
GI50 (HOP-92 NSCLC): < 10 nM
TGI (HOP-92 NSCLC): 1700 nM
GI50 (HS 578T breast): < 10 nM
TGI (HS 578T breast): < 10 nM
GI50 (HT29 colon): < 10 nM
TGI (HT29 colon): 1000 nM
GI50 (IGROV1 ovarian): 1100 nM
TGI (IGROV1 ovarian): 2320 nM
GI50 (K-562 leukemia): < 10 nM
TGI (K-562 leukemia): < 10 nM
GI50 (KM12 colon): < 10 nM
TGI (KM12 colon): 927 nM
GI50 (LOX IMVI melanoma): < 10 nM
TGI (LOX IMVI melanoma): 1530 nM
GI50 (M14 melanoma): < 10 nM
TGI (M14 melanoma): < 10 nM
GI50 (MALME-3M melanoma): < 10 nM
TGI (MALME-3M melanoma): 1890 nM
GI50 (MCF7 breast): < 10 nM
TGI (MCF7 breast): 1270 nM
GI50 (MDA-MB-231 breast): < 10 nM
TGI (MDA-MB-231 breast): 1780 nM
GI50 (MDA-MB-435 melanoma): < 10 nM
TGI (MDA-MB-435 melanoma): < 10 nM
GI50 (MDA-MB-468 breast): < 10 nM
TGI (MDA-MB-468 breast): < 10 nM
GI50 (MOLT-4 leukemia): < 10 nM
TGI (MOLT-4 leukemia): < 10 nM
GI50 (NCI-H226 lung): 1120 nM
TGI (NCI-H226 lung): 2340 nM
GI50 (NCI-H23 lung): < 10 nM
TGI (NCI-H23 lung): 1080 nM
GI50 (NCI-H322M lung): < 10 nM
TGI (NCI-H322M lung): 1730 nM
GI50 (NCI-H460 NSCLC): < 10 nM
TGI (NCI-H460 NSCLC): < 10 nM
GI50 (NCI-H522 lung): < 10 nM
TGI (NCI-H522 lung): < 10 nM
GI50 (NCI/ADR-RES ovarian): 109 nM
TGI (NCI/ADR-RES ovarian): 263 nM
GI50 (OVCAR-3 ovarian): < 10 nM
TGI (OVCAR-3 ovarian): < 10 nM
GI50 (OVCAR-4 ovarian): < 10 nM
TGI (OVCAR-4 ovarian): 1890 nM
GI50 (OVCAR-5 ovarian): < 10 nM
TGI (OVCAR-5 ovarian): 1250 nM
GI50 (OVCAR-8 ovarian): < 10 nM
TGI (OVCAR-8 ovarian): 1200 nM
GI50 (PC-3 prostate): < 10 nM
TGI (PC-3 prostate): 1620 nM
GI50 (RPMI-8226 leukemia): < 10 nM
TGI (RPMI-8226 leukemia): < 10 nM
GI50 (RXF 393 renal): < 10 nM
TGI (RXF 393 renal): < 10 nM
GI50 (SF-268 CNS): < 10 nM
TGI (SF-268 CNS): 1650 nM
GI50 (SF-295 CNS): < 10 nM
TGI (SF-295 CNS): < 10 nM
GI50 (SF-539 CNS): < 10 nM
TGI (SF-539 CNS): 20.2 nM
GI50 (SK-MEL-2 melanoma): < 10 nM
TGI (SK-MEL-2 melanoma): < 10 nM
GI50 (SK-MEL-28 melanoma): 1350 nM
TGI (SK-MEL-28 melanoma): 2640 nM
GI50 (SK-MEL-5 melanoma): < 10 nM
TGI (SK-MEL-5 melanoma): 14.7 nM
GI50 (SK-OV-3 ovarian): < 10 nM
TGI (SK-OV-3 ovarian): 1540 nM
GI50 (SN12C renal): < 10 nM
TGI (SN12C renal): 1790 nM
GI50 (SNB-19 CNS): < 10 nM
TGI (SNB-19 CNS): 1740 nM
GI50 (SNB-75 CNS): < 10 nM
TGI (SNB-75 CNS): 1950 nM
GI50 (SR leukemia): < 10 nM
TGI (SR leukemia): < 10 nM
GI50 (SW-620 colon): < 10 nM
TGI (SW-620 colon): 1060 nM
GI50 (T-47D breast): < 10 nM
TGI (T-47D breast): 1300 nM
GI50 (TK-10 renal): 94.9 nM
TGI (TK-10 renal): 2070 nM
GI50 (U251 glioblastoma): < 10 nM
TGI (U251 glioblastoma): 1430 nM
GI50 (UACC-62 melanoma): < 10 nM
TGI (UACC-62 melanoma): 1400 nM
GI50 (UO-31 renal): 1080 nM
TGI (UO-31 renal): 2290 nM
